Measurements taken from PubChem BioAssay (NCI).
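96-well plates; 48 h exposure; 5 concentrations. Endpoints by linear interpolation between flanking doses. Not reached: highest tested concentration assigned. TGI denotes the concentration required for complete inhibition of growth.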

Legend:
Experiment in all cases: NCI tumour cell line growth inhibition, 48 h
[1] = system: HT29 colon
[2] = system: LXFL 529 NSCLC
[3] = system: EKVX NSCLC
[4] = system: SK-OV-3 ovarian
[5] = system: UACC-62 melanoma
[6] = system: UO-31 renal
[7] = system: 786-0 renal
[8] = system: TK-10 renal
[9] = system: NCI-H23 lung
[10] = system: UACC-257 melanoma
[11] = system: KM12 colon
[12] = system: M14 melanoma
[13] = system: RXF 393 renal
[14] = system: KM20L2 colon
[15] = system: SR leukemia
[16] = system: NCI-H460 lung
[17] = system: U251 CNS
[18] = system: SF-539 CNS
[19] = system: XF 498 CNS
[20] = system: SK-MEL-2 melanoma
[21] = system: IGROV1 ovarian
[22] = system: HCT-15 colon
[23] = system: DU-145 prostate
[24] = system: CCRF-CEM leukemia
[25] = system: OVCAR-4 ovarian
[26] = system: DLD-1 colon
[27] = system: SK-MEL-5 melanoma
[28] = system: MALME-3M melanoma
[29] = system: SNB-19 CNS
[30] = system: HOP-18 NSCLC
[31] = system: OVCAR-5 ovarian
[32] = system: HOP-92 NSCLC
[33] = system: SF-268 CNS
[34] = system: NCI-H226 lung
[35] = system: SW-620 colon
[36] = system: COLO 205 colon
[37] = system: HL-60(TB) leukemia
[38] = system: A498 renal
[39] = system: OVCAR-3 ovarian
[40] = system: RXF-631 renal
[41] = system: K-562 leukemia
[42] = system: SN12C renal
[43] = system: CAKI-1 renal
[44] = system: A549 NSCLC
[45] = system: HCC-2998 colon
[46] = system: RPMI-8226 leukemia
[47] = system: HCT-116 colon
[48] = system: ACHN renal
[49] = system: SF-295 CNS
[50] = system: NCI-H522 lung
[51] = system: SK-MEL-28 melanoma
[52] = system: LOX IMVI melanoma
[53] = system: OVCAR-8 ovarian
[54] = system: SNB-75 CNS
[55] = system: MOLT-4 leukemia
[56] = system: SNB-78 CNS
[57] = system: HOP-62 NSCLC
[58] = system: M19-MEL melanoma
[59] = system: DMS 114 small cell lung
[60] = system: DMS 273 small cell lung

Cc1ccc(S(=O)(=O)N/N=C/c2oc(-c3cccc([N+](=O)[O-])c3)c(-c3cccc([N+](=O)[O-])c3)c2[N+](=O)[O-])cc1
TGI [1]: > 100 µM | TGI [2]: > 100 µM | TGI [3]: > 100 µM | TGI [4]: 68.5 µM | TGI [5]: 49.3 µM | TGI [6]: 32.3 µM | TGI [7]: > 100 µM | TGI [8]: > 100 µM | TGI [9]: > 100 µM | TGI [10]: > 100 µM | TGI [11]: > 100 µM | TGI [12]: > 100 µM | TGI [13]: 90.1 µM | TGI [14]: > 100 µM | TGI [15]: 45.8 µM | TGI [16]: > 100 µM | TGI [17]: > 100 µM | TGI [18]: > 100 µM | TGI [19]: > 100 µM | TGI [20]: 76.9 µM | TGI [21]: 91.2 µM | TGI [22]: > 100 µM | TGI [23]: > 100 µM | TGI [24]: 56.8 µM | TGI [25]: > 100 µM | TGI [26]: > 100 µM | TGI [27]: > 100 µM | TGI [28]: > 100 µM | TGI [29]: > 100 µM | TGI [30]: > 100 µM | TGI [31]: > 100 µM | TGI [32]: > 100 µM | TGI [33]: 66.7 µM | TGI [34]: > 100 µM | TGI [35]: > 100 µM | TGI [36]: > 100 µM | TGI [37]: 57.1 µM | TGI [38]: > 100 µM | TGI [39]: > 100 µM | TGI [40]: > 100 µM | TGI [41]: 69.9 µM | TGI [42]: > 100 µM | TGI [43]: > 100 µM | TGI [44]: > 100 µM | TGI [45]: > 100 µM | TGI [46]: 67.1 µM | TGI [47]: > 100 µM | TGI [48]: > 100 µM | TGI [49]: > 100 µM | TGI [50]: 28.4 µM | TGI [51]: > 100 µM | TGI [52]: 33.5 µM | TGI [53]: > 100 µM | TGI [54]: > 100 µM | TGI [55]: 77.9 µM

[O-]/[N+](=C\c1ccccc1)[C@H](COCc1ccccc1)c1ccccc1
TGI [1]: > 100 µM | TGI [2]: > 100 µM | TGI [3]: > 100 µM | TGI [4]: > 100 µM | TGI [6]: > 100 µM | TGI [7]: > 100 µM | TGI [8]: > 100 µM | TGI [9]: > 100 µM | TGI [10]: > 100 µM | TGI [11]: > 100 µM | TGI [56]: > 100 µM | TGI [13]: > 100 µM | TGI [14]: > 100 µM | TGI [16]: > 100 µM | TGI [17]: > 100 µM | TGI [18]: > 100 µM | TGI [19]: > 100 µM | TGI [20]: > 100 µM | TGI [21]: > 100 µM | TGI [57]: > 100 µM | TGI [24]: > 100 µM | TGI [58]: > 100 µM | TGI [59]: > 100 µM | TGI [26]: > 100 µM | TGI [27]: > 100 µM | TGI [28]: > 100 µM | TGI [29]: > 100 µM | TGI [30]: 90.4 µM | TGI [31]: > 100 µM | TGI [32]: 92.7 µM | TGI [33]: > 100 µM | TGI [35]: > 100 µM | TGI [36]: > 100 µM | TGI [37]: 62.1 µM | TGI [38]: > 100 µM | TGI [39]: > 100 µM | TGI [40]: > 100 µM | TGI [41]: > 100 µM | TGI [44]: > 100 µM | TGI [45]: > 100 µM | TGI [46]: > 100 µM | TGI [47]: > 100 µM | TGI [48]: > 100 µM | TGI [49]: > 100 µM | TGI [50]: > 100 µM | TGI [51]: > 100 µM | TGI [60]: > 100 µM | TGI [52]: > 100 µM | TGI [53]: > 100 µM | TGI [54]: > 100 µM | TGI [55]: > 100 µM

CCOc1ccc(NC(=O)CC2SC(=Nc3ccc(Cl)cc3)NC2=O)cc1 (centres undefined)
TGI [1]: > 100 µM | TGI [2]: > 100 µM | TGI [3]: > 100 µM | TGI [4]: > 100 µM | TGI [5]: > 100 µM | TGI [6]: > 100 µM | TGI [7]: > 100 µM | TGI [8]: > 100 µM | TGI [9]: > 100 µM | TGI [10]: > 100 µM | TGI [11]: > 100 µM | TGI [12]: > 100 µM | TGI [13]: > 100 µM | TGI [14]: > 100 µM | TGI [16]: > 100 µM | TGI [18]: > 100 µM | TGI [19]: > 100 µM | TGI [20]: > 100 µM | TGI [21]: > 100 µM | TGI [57]: > 100 µM | TGI [22]: > 100 µM | TGI [24]: 43.5 µM | TGI [25]: > 100 µM | TGI [58]: > 100 µM | TGI [59]: > 100 µM | TGI [26]: > 100 µM | TGI [27]: > 100 µM | TGI [28]: > 100 µM | TGI [29]: > 100 µM | TGI [30]: > 100 µM | TGI [31]: > 100 µM | TGI [33]: > 100 µM | TGI [34]: > 100 µM | TGI [35]: > 100 µM | TGI [36]: > 100 µM | TGI [37]: 75.4 µM | TGI [38]: > 100 µM | TGI [39]: > 100 µM | TGI [40]: > 100 µM | TGI [41]: 76.4 µM | TGI [42]: > 100 µM | TGI [43]: 48.8 µM | TGI [44]: > 100 µM | TGI [45]: > 100 µM | TGI [46]: > 100 µM | TGI [48]: > 100 µM | TGI [49]: > 100 µM | TGI [51]: > 100 µM | TGI [60]: > 100 µM | TGI [52]: > 100 µM | TGI [53]: > 100 µM | TGI [54]: > 100 µM | TGI [55]: > 100 µM
